Patent US20210087238A1, “CELL PENETRATING PEPTIDES AND RELATED COMPOSITIONS AND METHODS” (Phylogica Limited, priority 2017, published 2021)

What was measured:
[1] = system: CHO-K1 cells stably-expressing EGFR receptor; test: Bouganin assay: FPP_SpyT conjugated to EGFRAffibody_Bouganin_SpyC toxin, matched CHO-K1 lines (±hEGFR); type: cell-based; settings: 100 nM toxin; 48 h; CHO-K1 EGFR vs CHO-K1
Experimental: FIG. 9 FPP compatibility with receptor binding delivery (RBD)-mediated delivery and half-life extension by PASylation. (A) a plot showing percent viability of CHO-K1 cells stably-expressing EGFR receptor or (B) CHO-K1 cells were treated with FPP_SpyT conjugated to EGFRAffybody_Bouganin SpyC (EGRFAffbd_Boug_SpyC) toxin. After 48 h incubation cell viability was assessed by resazurin reduction potential. […] Results are representative of 3 independent experiments. Error bars represent standard deviation from the mean of duplicate samples. **P<0.01, ***P<0.001 by one-way ANOVA with Dunnett's multiple comparison test. (C) T47D cells were treated with FPP_PAP_linker_SpyT with and without conjugation to PAS_SpyC recombinant protein. […] Linkers are Cathepsin B FKFL cleavage motif (BF), Cathepsin B Valine-Citrulline cleavage motif (Ba) and Furin RKKR cleavage motif (Fur). Results are representative of 2 independent experiments. Error bars represent standard deviation from the mean of duplicate samples.
All assays followed manufacturer's instructions.

[2] = system: CHO-K1 cells; test: β-Lactamase (BLA) bioassay, CCF2-AM cleavage by flow cytometry; type: cell-based; settings: SpyC-BLA/CPP-SpyT conjugates; comparator TAT-SpyTag conjugate
Experimental: CHO-K1 cells (seeded at 1×10^5 cells/well in 24-well plates) were incubated with purified SpyC_BLA (SEQ ID NO:90) and SpyC_BLA_FPP1.1 (SEQ ID NO:91) proteins at […]/5% CO2 for 2 hours. Cells were washed, detached by 5 mins incubation with trypsin, washed, loaded with the β-lactamase substrate CCF2-AM and analysed by Flow Cytometry; intracellular β-lactamase activity caused an emission shift from 510 nm to 450 nm. The percentages of β-lactamase positive cells for each sample were graphed against the concentration of protein added to the cells. […]
β-Lactamase is a bacterial enzyme that catalyses the opening of β-lactam rings. […] To address this need, β-Lactamase was expressed as C-terminal SpyC fusion, making SpyC-BLA (SEQ ID NO:90). […]
CCF2-AM (Thermofisher Scientific, Australia) is a Fluorescence Resonance Energy Transfer (FRET) substrate that is enzymatically cleaved by β-Lactamase. […] In the presence of β-Lactamase, the fluorescein moiety of CCF2 is enzymatically cleaved, resulting in the emission wavelength shifting to 447 nm (blue). β-Lactamase activity is quantified by measuring the ratio of blue fluorescence to green fluorescence.
The cell-penetrating and endosomal escape ability of FPP1.1 (SEQ ID NO:39) and sequence variant SpyC-BLA/CCP-SpyT conjugates was assessed by flow cytometry to determine cytosolic CCF2-AM cleavage by internalized β-Lactamase. […]

Sequence	delivery of EGFRAffbd_Boug_SpyC toxin, cell viability [1]	delivery of BLA to the cytosol [2]
KTQEKKKKQPPKPKKPKTQEKKKKQPPKPKR (Amino acid sequence of a Sindbis virus capsid-derived CPP (del1746)) [FPP1-del]	significantly improved delivery compared to RBD alone but retains RBD encoded specificity	
PKKPKTQEKKKKQPPK (Amino acid sequence of a Sindbis virus capsid-derived CPP (SAR1)) [FPP1-SAR1]		ineffective in delivering BLA
